Measurements: ChEMBL document CHEMBL1146627, “Synthesis and structure-activity relationships of 1-arylmethyl-3-(1-methyl-2-amino)ethyl-5-aryl-6-methyluracils as antagonists of the human GnRH Receptor” (Bioorg Med Chem Lett, 2003)

molecular target: T1, Gonadotropin-releasing hormone receptor (Homo sapiens, UniProt P30968); test: Binding affinity towards human gonadotropin-releasing hormone receptor expressed in HEK293 cells; assay type: cell-based
T1 sequence (P30968 whole entry): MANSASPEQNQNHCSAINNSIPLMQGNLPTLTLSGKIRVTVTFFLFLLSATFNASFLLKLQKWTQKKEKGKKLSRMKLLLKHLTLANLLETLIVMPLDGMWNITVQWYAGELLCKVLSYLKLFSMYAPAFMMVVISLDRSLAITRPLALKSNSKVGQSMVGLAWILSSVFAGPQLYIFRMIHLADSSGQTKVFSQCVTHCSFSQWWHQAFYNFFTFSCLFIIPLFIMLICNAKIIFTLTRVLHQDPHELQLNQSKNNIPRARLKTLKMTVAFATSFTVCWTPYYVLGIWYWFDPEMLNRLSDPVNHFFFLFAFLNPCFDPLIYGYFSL

Ki	SMILES
1600 nM	COc1cccc(-c2c(C)n(Cc3c(F)cccc3F)c(=O)n([C@@H](C)CNCC3CC3)c2=O)c1
950 nM	COc1cccc(-c2c(C)n(Cc3c(F)cccc3F)c(=O)n([C@@H](C)CNC3CCCC3)c2=O)c1
20 nM	COc1cccc(-c2c(C)n(Cc3c(F)cccc3F)c(=O)n([C@H](C)CN(C)CCc3ccccn3)c2=O)c1
75 nM	COc1cccc(-c2c(C)n(Cc3c(F)cccc3F)c(=O)n([C@H](C)CNCc3ccccc3)c2=O)c1
430 nM	COc1cccc(-c2c(C)n(Cc3c(F)cccc3F)c(=O)n([C@H](C)CNC3CCCC3)c2=O)c1
8300 nM	COc1cccc(-c2c(C)n(Cc3c(F)cccc3F)c(=O)n(C3CCN(CCc4ccccn4)C3)c2=O)c1 (stereo unspecified)
1800 nM	COc1cccc(-c2c(C)n(Cc3c(F)cccc3F)c(=O)n([C@@H](C)CN(C)CCc3ccccn3)c2=O)c1
190 nM	COc1cccc(-c2c(C)n(Cc3c(F)cccc3F)c(=O)n([C@H](C)CNCC(C)C)c2=O)c1
250 nM	COc1cccc(-c2c(C)n(Cc3c(F)cccc3F)c(=O)n([C@H](C)CNCc3ccc(F)cc3)c2=O)c1
550 nM	COc1cccc(-c2c(C)n(Cc3c(F)cccc3F)c(=O)n([C@@H](C)CNCc3ccccc3F)c2=O)c1
370 nM	COc1cccc(-c2c(C)n(Cc3c(F)cccc3F)c(=O)n([C@@H](C)CNCc3ccccc3)c2=O)c1
90 nM	COc1cccc(-c2c(C)n(Cc3c(F)cccc3F)c(=O)n([C@H](C)CNCc3ccccc3F)c2=O)c1
2000 nM	COc1cccc(-c2c(C)n(Cc3c(F)cccc3F)c(=O)n([C@@H](C)CN(C)Cc3ccccc3)c2=O)c1
780 nM	COc1cccc(-c2c(C)n(Cc3c(F)cccc3F)c(=O)n([C@H](C)CNCC3CC3)c2=O)c1
280 nM	COc1cccc(-c2c(C)n(Cc3c(F)cccc3F)c(=O)n(C3CCN(Cc4ccccc4)C3)c2=O)c1 (stereo unspecified)
5 nM	COc1cccc(-c2c(C)n(Cc3c(F)cccc3F)c(=O)n(C[C@H](C)N(C)CCc3ccccn3)c2=O)c1
590 nM	COc1cccc(-c2c(C)n(Cc3c(F)cccc3F)c(=O)n([C@H](C)CN(C)CC3CC3)c2=O)c1
1200 nM	COc1cccc(-c2c(C)n(Cc3c(F)cccc3F)c(=O)n([C@@H](C)CNCC(C)C)c2=O)c1
15000 nM	COc1cccc(-c2c(C)n(Cc3c(F)cccc3F)c(=O)n(C3CCNC3)c2=O)c1 (stereo unspecified)
85 nM	COc1cccc(-c2c(C)n(Cc3c(F)cccc3F)c(=O)n([C@H](C)CNCc3cccc(F)c3)c2=O)c1
20 nM	COc1cccc(CNC[C@@H](C)n2c(=O)c(-c3cccc(OC)c3)c(C)n(Cc3c(F)cccc3F)c2=O)c1
70 nM	COc1cccc(-c2c(C)n(Cc3c(F)cccc3F)c(=O)n([C@H](C)CNCc3ccccc3C)c2=O)c1
150 nM	COc1cccc(-c2c(C)n(Cc3c(F)cccc3F)c(=O)n([C@H](C)CN(C)Cc3ccccc3)c2=O)c1
400 nM	COc1cccc(-c2c(C)n(Cc3c(F)cccc3F)c(=O)n([C@@H](C)CNCc3ccccc3C)c2=O)c1
7000 nM	COc1cccc(-c2c(C)n(Cc3c(F)cccc3F)c(=O)n([C@@H](C)CN(C)CC3CC3)c2=O)c1
720 nM	COc1ccc(CNC[C@@H](C)n2c(=O)c(-c3cccc(OC)c3)c(C)n(Cc3c(F)cccc3F)c2=O)cc1
